Measured values from ChEMBL document CHEMBL1146079, “Inhibition of human acetyl- and butyrylcholinesterase by novel carbamates of (-)- and (+)-tetrahydrofurobenzofuran and methanobenzodioxepine” (J Med Chem, 2006).
pIC50: −log10 of the molar value.

Key:
Acetylcholinesterase = Acetylcholinesterase (Homo sapiens, UniProt P22303)
Description: Anticholinesterase activity against human erythrocyte AChE

Cholinesterase = Cholinesterase (Homo sapiens, UniProt P06276)
Cholinesterase, sequence (P06276 whole entry): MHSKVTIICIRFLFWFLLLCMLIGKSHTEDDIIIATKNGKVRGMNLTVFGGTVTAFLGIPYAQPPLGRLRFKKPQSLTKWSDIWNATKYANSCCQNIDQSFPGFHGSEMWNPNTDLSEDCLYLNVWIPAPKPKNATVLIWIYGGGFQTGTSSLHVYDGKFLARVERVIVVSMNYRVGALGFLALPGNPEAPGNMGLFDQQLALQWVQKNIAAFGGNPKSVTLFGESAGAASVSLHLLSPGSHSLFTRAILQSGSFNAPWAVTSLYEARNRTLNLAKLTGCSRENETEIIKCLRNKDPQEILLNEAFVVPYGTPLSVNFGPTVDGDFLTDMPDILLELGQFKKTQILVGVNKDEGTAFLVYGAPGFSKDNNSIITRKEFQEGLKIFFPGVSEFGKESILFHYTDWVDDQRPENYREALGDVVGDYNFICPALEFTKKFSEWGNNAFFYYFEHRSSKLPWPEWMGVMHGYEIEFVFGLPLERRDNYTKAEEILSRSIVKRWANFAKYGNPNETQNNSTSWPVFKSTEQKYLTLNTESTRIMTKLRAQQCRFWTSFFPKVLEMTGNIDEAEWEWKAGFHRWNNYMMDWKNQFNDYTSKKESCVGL
Description: Anticholinesterase activity against human plasma BChE

Acetylcholinesterase, sequence (P22303 whole entry): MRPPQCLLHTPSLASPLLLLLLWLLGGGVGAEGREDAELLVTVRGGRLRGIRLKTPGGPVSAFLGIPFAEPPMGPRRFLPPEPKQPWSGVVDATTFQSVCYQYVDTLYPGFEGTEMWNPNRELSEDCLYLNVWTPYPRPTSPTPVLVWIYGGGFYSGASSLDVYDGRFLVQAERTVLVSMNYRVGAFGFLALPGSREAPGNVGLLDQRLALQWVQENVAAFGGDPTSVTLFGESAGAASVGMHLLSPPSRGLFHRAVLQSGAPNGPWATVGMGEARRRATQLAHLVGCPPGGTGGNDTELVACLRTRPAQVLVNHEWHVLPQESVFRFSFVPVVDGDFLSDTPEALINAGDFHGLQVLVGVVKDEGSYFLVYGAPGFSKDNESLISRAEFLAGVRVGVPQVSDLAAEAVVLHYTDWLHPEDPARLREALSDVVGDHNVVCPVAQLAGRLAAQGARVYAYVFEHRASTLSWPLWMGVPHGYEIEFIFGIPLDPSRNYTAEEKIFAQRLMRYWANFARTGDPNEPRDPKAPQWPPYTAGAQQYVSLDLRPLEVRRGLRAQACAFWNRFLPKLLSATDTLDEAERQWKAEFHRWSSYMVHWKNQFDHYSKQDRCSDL

SMILES | pIC50 (Acetylcholinesterase) | pIC50 (Cholinesterase)
CC(C)c1ccc(NC(=O)Oc2ccc3c(c2)[C@]2(C)CO[C@@H](C2)O3)cc1 | 5.46 | 7.27
CC(C)c1ccc(NC(=O)Oc2ccc3c(c2)[C@]2(C)CCO[C@@H]2N3C)cc1 | 5.41 | 7.77
CC(C)c1ccc(NC(=O)Oc2ccc3c(c2)[C@]2(C)CCO[C@@H]2O3)cc1 | – | 7.89
CC(C)c1ccc(NC(=O)Oc2ccc3c(c2)[C@@]2(C)CO[C@H](C2)O3)cc1 | – | 7.82
Cc1ccccc1NC(=O)Oc1ccc2c(c1)[C@]1(C)CCO[C@@H]1O2 | – | 4.94
CCNC(=O)Oc1ccc2c(c1)[C@]1(C)CCN(C)[C@@H]1N2C | 7.03 | 8.40
CCNC(=O)Oc1ccc2c(c1)[C@@]1(C)CO[C@H](C1)O2 | 6.21 | 7.64
CC(C)c1ccc(NC(=O)Oc2ccc3c(c2)[C@@]2(C)CCO[C@H]2N3C)cc1 | – | 7.64
Cc1ccccc1NC(=O)Oc1ccc2c(c1)[C@@]1(C)CCO[C@H]1N2C | 6.85 | 5.29
CNC(=O)Oc1ccc2c(c1)[C@@]1(C)CCO[C@H]1N2C | 7.25 | 7.25
Cc1ccccc1NC(=O)Oc1ccc2c(c1)[C@@]1(C)CCN(C)[C@H]1N2C | 5.26 | –
CCNC(=O)Oc1ccc2c(c1)[C@]1(C)CCO[C@@H]1O2 | 7.00 | 8.52
Cc1ccccc1NC(=O)Oc1ccc2c(c1)[C@@]1(C)CO[C@H](C1)O2 | 7.42 | 4.28
CNC(=O)Oc1ccc2c(c1)[C@]1(C)CCO[C@@H]1N2C | – | 8.40
CCNC(=O)Oc1ccc2c(c1)[C@]1(C)CCO[C@@H]1N2C | 7.09 | 8.70
CCNC(=O)Oc1ccc2c(c1)[C@]1(C)CO[C@@H](C1)O2 | 5.62 | 6.92
Cc1ccccc1NC(=O)Oc1ccc2c(c1)[C@]1(C)CO[C@@H](C1)O2 | 7.01 | –
Cc1ccccc1NC(=O)Oc1ccc2c(c1)[C@@]1(C)CCO[C@H]1O2 | – | 4.44
CCNC(=O)Oc1ccc2c(c1)[C@@]1(C)CCO[C@H]1O2 | 6.31 | 7.55
CC(C)c1ccc(NC(=O)Oc2ccc3c(c2)[C@@]2(C)CCO[C@H]2O3)cc1 | – | 7.40
